Data: PubChem BioAssay (NCI)
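Protocol summary: plate cells (96-well), add compound at 5 concentrations, incubate 48 h, interpolate endpoints linearly. Definition used: TGI = concentration required for complete inhibition of growth.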

Assays:
Test in all cases: inhibition of tumour cell growth, NCI panel, 48 h
M19-MEL melanoma = test system: M19-MEL melanoma
RPMI-8226 leukemia = test system: RPMI-8226 leukemia
SF-539 CNS = test system: SF-539 CNS
DMS 273 small cell lung = test system: DMS 273 small cell lung
DLD-1 colon = test system: DLD-1 colon
OVCAR-5 ovarian = test system: OVCAR-5 ovarian
SK-MEL-28 melanoma = test system: SK-MEL-28 melanoma
LXFL 529 NSCLC = test system: LXFL 529 NSCLC
SK-OV-3 ovarian = test system: SK-OV-3 ovarian
SK-MEL-2 melanoma = test system: SK-MEL-2 melanoma
K-562 leukemia = test system: K-562 leukemia
786-0 renal = test system: 786-0 renal
RXF 393 renal = test system: RXF 393 renal
CCRF-CEM leukemia = test system: CCRF-CEM leukemia
OVCAR-3 ovarian = test system: OVCAR-3 ovarian
HOP-92 NSCLC = test system: HOP-92 NSCLC
MOLT-4 leukemia = test system: MOLT-4 leukemia
OVCAR-4 ovarian = test system: OVCAR-4 ovarian
IGROV1 ovarian = test system: IGROV1 ovarian
COLO 205 colon = test system: COLO 205 colon
HT29 colon = test system: HT29 colon
A549 NSCLC = test system: A549 NSCLC
OVCAR-8 ovarian = test system: OVCAR-8 ovarian
NCI-H460 lung = test system: NCI-H460 lung
KM12 colon = test system: KM12 colon
HOP-62 NSCLC = test system: HOP-62 NSCLC
TK-10 renal = test system: TK-10 renal
MALME-3M melanoma = test system: MALME-3M melanoma
ACHN renal = test system: ACHN renal
NCI-H23 lung = test system: NCI-H23 lung
HCC-2998 colon = test system: HCC-2998 colon
SNB-75 CNS = test system: SNB-75 CNS
UACC-62 melanoma = test system: UACC-62 melanoma
UO-31 renal = test system: UO-31 renal
RXF-631 renal = test system: RXF-631 renal
SF-268 CNS = test system: SF-268 CNS
SF-295 CNS = test system: SF-295 CNS
SK-MEL-5 melanoma = test system: SK-MEL-5 melanoma
U251 CNS = test system: U251 CNS
HL-60(TB) leukemia = test system: HL-60(TB) leukemia
NCI-H522 lung = test system: NCI-H522 lung
CAKI-1 renal = test system: CAKI-1 renal
KM20L2 colon = test system: KM20L2 colon
HCT-15 colon = test system: HCT-15 colon
M14 melanoma = test system: M14 melanoma
SN12C renal = test system: SN12C renal
SW-620 colon = test system: SW-620 colon
SNB-19 CNS = test system: SNB-19 CNS
HOP-18 NSCLC = test system: HOP-18 NSCLC
LOX IMVI melanoma = test system: LOX IMVI melanoma
EKVX NSCLC = test system: EKVX NSCLC
XF 498 CNS = test system: XF 498 CNS
SNB-78 CNS = test system: SNB-78 CNS
SR leukemia = test system: SR leukemia
HCT-116 colon = test system: HCT-116 colon
DMS 114 small cell lung = test system: DMS 114 small cell lung
A498 renal = test system: A498 renal
NCI-H226 lung = test system: NCI-H226 lung
UACC-257 melanoma = test system: UACC-257 melanoma

Measured: TGI

COc1ccc2c(C3(O)CCNCC3)c[nH]c2c1
not listed: XF 498 CNS | SNB-78 CNS | SR leukemia | HCT-116 colon | DMS 114 small cell lung | A498 renal | NCI-H226 lung | UACC-257 melanoma
> 100 µM: all other assays above

CCCc1ccc(N=Cc2cc(OC)c(OC)c(OC)c2)cc1
> 67.5 µM: HL-60(TB) leukemia
> 60.6 µM: DMS 114 small cell lung
> 72.6 µM: K-562 leukemia
> 54.6 µM: HCT-15 colon
> 31.6 µM: COLO 205 colon
> 65.8 µM: RPMI-8226 leukemia
not listed: HCC-2998 colon | RXF-631 renal
> 100 µM: all other assays above

c1c[nH]c(Cc2ncc(Cc3cnc[nH]3)[nH]2)n1
86 µM: A498 renal
98.6 µM: HOP-62 NSCLC
85 µM: IGROV1 ovarian
36.7 µM: M14 melanoma
46.3 µM: NCI-H226 lung
51.5 µM: ACHN renal
21.5 µM: HL-60(TB) leukemia
58.6 µM: DMS 114 small cell lung
86.2 µM: SK-OV-3 ovarian
59.1 µM: SK-MEL-5 melanoma
59.6 µM: OVCAR-5 ovarian
58.7 µM: CCRF-CEM leukemia
65.8 µM: 786-0 renal
84.4 µM: SNB-19 CNS
67.8 µM: DMS 273 small cell lung
55.8 µM: M19-MEL melanoma
59.5 µM: UACC-62 melanoma
96.2 µM: NCI-H460 lung | LOX IMVI melanoma
not listed: RXF 393 renal | UO-31 renal | RXF-631 renal | SNB-78 CNS | SR leukemia | UACC-257 melanoma
> 100 µM: all other assays above

Cc1ccc(S(=O)(=O)ON/N=C2/C3OC3[C@@H]3CCCC[C@H]23)cc1 (stereo partly specified)
32.5 µM: UACC-257 melanoma
not listed: OVCAR-5 ovarian | SK-OV-3 ovarian | RXF-631 renal | SK-MEL-5 melanoma | LOX IMVI melanoma | SNB-78 CNS | HCT-116 colon | DMS 114 small cell lung | A498 renal
> 100 µM: all other assays above
